Source: patent US20240165165A1, “PHARMACEUTICAL COMPOSITIONS AND THEIR METHODS OF USE” (The Trustees of Indiana University, priority 2021, published 2024)

Assays:
[1] = test system: EO771 mammary tumor cells in the lung of C57BL/6 mice; assay: In vivo extravasation assay; parameters: species or system mouse; details: co-injection into tail vein, 48 h
Description: To evaluate the effects of CMs for tumor invasion, the in vivo extravasation assay was conducted. C57BL/6 female mice (5 mice per group) received an injection of 50 μl of fluorescently labeled EO771 cells (1.0×10^6 cells) into the lateral tail veins. Fluorescently labeled EO771 cells were prepared by culturing them with a green fluorescent dye (#4705, Sartorius, Gottingen, Germany) for 20 min at 37° C. Cells were then centrifuged with 1000 rpm for 5 min for harvesting the pellet. The pellet was re-suspended in PBS (placebo group) or osteocyte-derived CM (A5 CM group). Mice will be sacrificed after 48 h for histologically identifying extravascular tumor cells in the lung.

[2] = test system: EO771 cells in the inside of the skull; assay: Skull diffusion assay, MTT-based viability; format: cell-based, mouse; details: agent in the outside of the skull
Description: (§1) Skull diffusion assay. The usage of human breast cancer tissues was approved by the Indiana University Institutional Review Board, and informed consent for research use was obtained from all patients. The experiment was performed following Indiana University's human research protection program policies. A breast cancer tissue (— 1 g; ER/PR+, HER2+), received from Simon Cancer Center Tissue Procurement Core, was manually fragmented with a scalpel into small pieces. Mouse skulls were isolated and rinsed with PBS. They were placed in a 24-well plate with the head top facing the well surface and tumor cells or breast cancer tissue fragments were grown. The well was filled with the control medium or osteocyte-derived CM. Fluphenazine (Sigma-Aldrich), a dopamine receptor antagonist that suppresses the growth of mammary tumor cells, was employed as a positive control to suppress tumor growth.

[3] = test system: human breast cancer fragments in the inside of the skull; assay: Skull diffusion assay, tissue fragments; format: cell-based; details: agent in the outside of the skull
Description: as §1

[4] = test system: phosphorylated Akt in MSCs; assay: Western blot of phosphorylated Akt; format: cell-based, mouse
Description: (§2) Western blot analysis and protein array analysis. Western blot analysis was conducted using the procedure previously described. Antibodies against Lrp5, Runx2, Snail, TGFβ, sclerostin, Calr, p-eIF2α, eIF2α (Cell Signaling, Danvers, MA, USA), LIF, Trail (Novus Biologicals, Centennial, CO, USA), MMP9, NFATc1, cathepsin K (Santa Cruz Biotechnology, Dallas, TX, USA), p53, CXCL2, Ppib (Invitrogen, Carlsbad, CA, USA), Hsp90ab1 (Abcam, Cambridge, UK), and β-actin (Sigma, Saint Louis, MO, USA) were used. A proteome profiler mouse XL cytokine array kit (R&D Systems, Minneapolis, MN, USA) was also employed, and the expression of 111 cytokines and chemokines in MSC-derived CM was determined.

[5] = test system: 4T1.2 cells; assay: Western blot of proteins in treated tumor cells; format: cell-based, mouse; details: for tumor-promoting genes (Lrp5, MMP9, Runx2, TGFβ, Snail) in 4T1.2 cells: Western blot
Description: as §2

[6] = test system: 4T1.2 mammary tumor cells; assay: Scratch-based migration assay; format: cell-based, mouse
Description: Two-dimensional motility assay. A wound-healing scratch motility assay was performed to evaluate 2-dimensional cell motility. Approximately 4×10^5 cells were seeded in 12-well plates. After cell attachment, a plastic pipette tip was used to scratch a gap on the cell layer. Floating cells were removed, and CM was added. Images of the cell-free scratch zone were obtained via an inverted microscope at 0 h, and the areas newly occupied with cells were determined 24-48 h after scratching. The areas were quantified with IMAGE J (National Institutes of Health, Bethesda, MD, USA).
In vitro assays. Cellular viability was examined using an MTT assay (Invitrogen, Carlsbad, CA, USA) with the procedure previously described, as well as an EdU assay with a fluorescence-based cell proliferation kit (Thermo-Fisher, Waltham, MA, USA). […]

[7] = test system: 4T1.2 mammary tumor cells; assay: MTT viability assay; format: cell-based, mouse
Description: (§3) In vitro assays. Cellular viability was examined using an MTT assay (Invitrogen, Carlsbad, CA, USA) with the procedure previously described, as well as an EdU assay with a fluorescence-based cell proliferation kit (Thermo-Fisher, Waltham, MA, USA). The recombinant proteins employed included Filamin A, Pkm, Pdia3, Tpm4, Anxa2, Eef1a1, Cts1, Nme2, Dcn, Calr, Aldoa, Calm1, Tpm3, Ppib, Myh9, Ywhae, Hspa5, Hsp90aa1 (MBS962910, MBS8249600, MBS2010131, MBS145304, MBS2009095, MBS2033168, MBS143355, MBS145412, MBS2557309, MBS2009125, MBS8248528, MBS2018713, MBS144696, MBS2009092, MBS717396, MBS143242, MBS806904, MBS142709; MyBioSource, San Diego, CA, USA), Actin Gamma 1, Actn4, Hspa8, Vimentin (H00000071-P01, H00000081-P01, NBP1-30278, NBP2-35139; Novus, Littleton, CO, USA), and Hsp90ab1 (OPCA05157; Aviva system biology, San Diego, CA, USA). A TRANSWELL® chamber assay was conducted to detect invasive cellular motility, and a wound-healing scratch assay was utilized to evaluate 2-dimensional migratory behavior. The overexpression of Akt, Lrp5, β-catenin, Snail, Calr, and Ppib was conducted by transfecting plasmids (#10841, #115907, #31785, #31697, #51161, #36123; Addgene, Cambridge, MA, USA). […]

[8] = test system: 4T1.2 mammary tumor cells; assay: EdU proliferation assay; format: cell-based, mouse
Description: EdU assay. Approximately 2,000 cells were seeded in 96-well plates on day 1. CM was added on day 2 and cellular proliferation was examined using a fluorescence-based cell proliferation kit (CLICK-IT™ EDU ALEXA FLUOR™ 488 Imaging Kit; Thermo-Fisher, Waltham, MA, USA) on day 4. After fluorescent labeling, the number of fluorescently labeled cells was counted and the ratio to the total number of cells was determined.
as §3, with “USA).” for “USA). A TRANSWELL® chamber assay was conducted to detect invasive cellular motility, and a wound-healing scratch assay was utilized to evaluate 2-dimensional migratory behavior. The overexpression of Akt, Lrp5, β-catenin, Snail, Calr, and Ppib was conducted by transfecting plasmids (#10841, #115907, #31785, #31697, #51161, #36123; Addgene, Cambridge, MA, USA).”

[9] = test system: 4T1.2 mammary tumor cells; assay: TRANSWELL invasion assay; format: cell-based, mouse
Description: as §3

[10] = test system: EO771 cells; assay: Western blot of proteins in treated tumor cells; format: cell-based, mouse
Description: Western blot analysis and mass spectrometry. Western blot analysis was conducted using known procedures. Antibodies were used against ANXA1, β-catenin, caspase 3, Lrp5, Lrp6, Runx2, Sclerostin, Snail, TGFβ, NFATc1, cathepsin K (Cell Signaling, Danvers, MA, USA), DMP1, ANXA6, CXCL5 (Abcam, Cambridge, MA, USA), M-CSF, MMP9, OPN, TPM4 (Santa Cruz, Dallas, TX, USA), WISP1 (R&D systems, Minneapolis, MN, USA), β-actin (Sigma, Saint Louis, MO, USA), LIMA1, Trail (Novus, Centennial, CO, USA), p53 and CXCL1 (Invitrogen, Carlsbad, California, USA), and DSP (ProteinTech, Rosemont, IL, USA). The expression levels of Sclerostin and Lrp5 in CM were detected by ELISA (My BioSource, San Diego, CA, USA). Proteins from A5 osteocyte CM, Y4 osteocyte CM, and osteoclast control CM (RAW264.7 cells) were analyzed by the HF Hybrid Quadrupole Orbitrap mass spectrometry. Among 549 identified proteins, 49 proteins presented higher expression levels in A5 CM than Y4 CM and control CM. […]
Western blot analysis and protein array analysis. […] A proteome profiler mouse XL cytokine array kit (R&D Systems, Minneapolis, MN, USA) was also employed, and the expression of 111 cytokines and chemokines in MSC-derived CM was determined. […]

[11] = Estimation of the diffusion coefficient through the skull; format: physicochemical, mouse
Description: Estimation of the diffusion coefficient through the skull. Suppose that the two aqueous reservoirs are separated by a skull and the solute (albumin) in the first reservoir with the volume V1 is transferred to the second reservoirs with the volume V2. When the volume of the skull is negligible, the change in the solute in the first reservoir is approximated, using the quasi-steady-state flux, N according to Eq. (1) and Eq. (2):
Where t=time, and c 1 (t) and c 2 (t)=concentrations in the first and second reservoirs, respectively, A=skull surface area, D=diffusion coefficient through the skull, and L=skull thickness. Since the decrease in the first reservoir is equivalent to the gain in the second reservoir, Eq. (3) is arrived at:
If the initial concentrations are c1(t=0)=c0 and c2 (t=0)=0, the concentration c1 is predicted as a function of time according to Eq. (4):
The diffusion coefficient of albumin in the skull was estimated as 3.30×10^−8 cm^2/s from the slope (0.7157) of the best-fit line of Eq. (4) in FIG. 36B. Of note, V1=265 μl, V2=65 μl, c0=10 μg/μ1, A=188 mm^2, and L=60 μm.

COc1cccc(-c2cc(NCc3ccc4c(c3)OCO4)nc(N)n2)c1 [BML284]
number of EO771 tumor cells in the lung [1]: Reduction

OCCN1CCN(CCCN2c3ccccc3Sc3ccc(C(F)(F)F)cc32)CC1 [Fluphenazine]
viability of EO771 tumor cells in the inside of the skull [2]: significantly decreased | size of human breast cancer fragments in the inside of the skull [3]: significantly shrunk

Oc1cc2c(cc1O)C(Cc1cccc3ccccc13)NCC2 (stereo not shown) [YS49]
phosphorylated Akt in MSCs [4]: elevated

Hsp90aa1: Hsp90aa1 recombinant protein
tumor-promoting genes (Lrp5, MMP9, Runx2, TGFβ, Snail) in 4T1.2 cells [5]: did not alter

Hsp90ab1: recombinant heat shock protein 90 alpha family class B member 1
scratch-based migration of 4T1.2 cells [6]: reduced | MTT-based viability of 4T1.2 cells [7]: Significant reduction | tumor-promoting genes (Lrp5, MMP9, Runx2, TGFβ, Snail) in 4T1.2 cells [5]: downregulated

Ppib: recombinant peptidylprolyl isomerase B
EdU-based proliferation of 4T1.2 cells [8]: significantly inhibited | TRANSWELL invasion of 4T1.2 cells [9]: significantly inhibited | MTT-based viability of 4T1.2 cells [7]: Significant reduction | phosphorylation level of eIF2α in 4T1.2 cells [5]: elevated | tumor-promoting genes (Lrp5, MMP9, Runx2, TGFβ, Snail) in 4T1.2 cells [5]: suppressed

TGFβ
tumor-promoting/tumorigenic proteins (Lrp5, MMP9, Runx2, TGFβ, Snail, IL1β etc.) in EO771 cells [10]: increased

albumin: bovine serum albumin, solute for skull diffusion
diffusion coefficient across the skull relative to aqueous solution, fold smaller [11]: approximately 20 fold | diffusion coefficient across the skull ([11]; murine skull, estimated from slope of Eq. (4)): 3.30×10^−8 cm^2/s
